The text below walks through data of patent publication US11753395B2 (Kinnate Biopharma Inc., priority 2021, dated 2023).

SMILES strings stand for the structures. A value given as a limit tells only on which side of the number the result lay.

For one assay, the target named is T1, MET (Homo sapiens, UniProt P08581).
T1 construct: purchased Carna Biosciences 08-151
The assay can be described thus: MET Mobility Shift Assay. The settings on record: biochemical assay IC50; 100 μM ATP, 60 minute kinase reaction. The procedure:
(§1) Small molecule inhibition of MET kinase activity was evaluated using a fluorescence-based microfluidic mobility shift assay. MET catalyzes the production of ADP from ATP during phosphoryl transfer to the substrate peptide, FLPeptide30 (5-FAM-KKKKEEIYFFF-CONH2) (Perkin Elmer, 760430). MET enzme (Carna Biosciences, 08-151) at 0.625 nM was prepared with 10 mM MgCl2 and 1.5 μM substrate peptide in a buffer containing 50 mM HEPES, 1 mM EGTA, 0.01% Brij-35, 0.05% BSA, and 2 mM DTT and pre-incubated at room temperature for 30 min prior to the start of the reaction. 100 μM ATP was added to start the reaction. The mobility shift assay electrophoretically separates the fluorescently labeled peptides (substrate and phosphorylated product) following the 60 minute kinase reaction. The reaction was terminated by addition of 0.5 M EDTA. Both substrate and product were measured and the ratio of these values used to generate % conversion of substrate to product by the LabChip EZ reader (Perkin Elmer). ICso values were calculated using the inhibition of conversion ratio using Dotmatics Knowledge Solutions Studies curve fitting environment (Dotmatics, Bishops Stortford, UK, CM23) and are presented in Table 2.

The next assay deals with T2, MET D1228N (Homo sapiens, UniProt P08581, D1228N).
T2 construct: purchased Signalchem M52-12IG
The assay can be described thus: MET D1228N Mobility Shift Assay. The settings on record: biochemical assay IC50; 100 μM ATP, 60 minute kinase reaction. The procedure: as §1, with “MET D1228N” for “MET”, “a fluorescence -based” for “a fluorescence-based”, “FLPeptide30 (5-FAM-KKKKEEIYFFF -CONH2)” for “FLPeptide30 (5-FAM-KKKKEEIYFFF-CONH2)”, “MET D1228N enzyme (Signalchem, M52-12IG)” for “MET enzme (Carna Biosciences, 08-151)”, “at 0.313” for “at 0.625”

The next assay deals with T3, Ba/F3-TPR-MET cells (Homo sapiens, UniProt P08581).
T3 construct: fused on or other part: P12270 (Nucleoprotein TPR)
The assay can be described thus: CellTiter-Glo Cell Viability Assay, Ba/F3-TPR-MET. The assay is classed as cell-based. To be noted: 72 hours. The procedure:
(§2) Ba/F3-TPR-MET and Ba/F3-TPR-MET-D1228N cells were seeded at 3000 cells per well in a 96 well plate in 90 μL growth media and allowed to incubate overnight at 37° C. with 5% CO2. The following day, compounds were serially diluted from a 10 mM top dose for a 9-point 3-fold dilution curve in DMSO. Following a 100-fold dilution in growth media, a further 10-fold dilution was made into the cell plate for a final volume of 100 μL and 0.1% DMSO. Compounds and cells were incubated together for 72 hours at 37° C. with 5% CO2. The CellTiter-Glo® 2.0 Assay determines the number of viable cells in culture by quantifying ATP, which indicates the presence of metabolically active cells. Luminescence readout is directly proportional to the number of viable cells in culture. CellTiter-Glo reagent (Promega, G9243) and cell plates were allowed to equilibrate to room temperature for at least 15 min, then 100 μL of CellTiter-Glo was added to each well for a 1:1 ratio of reagent to media. Samples were placed on a shaker for 2 min prior to a 30 min incubation at room temperature protected from light. Luminescence was read on a Perkin Elmer Envision plate reader 2105 and used to calculate ICso values within the Dotmatics Knowledge Solutions Studies curve fitting environment (Dotmatics, Bishops Stortford, UK, CM23) and are presented in Table 2.
(In general: ATP-based viability assays read luminescence as a measure of living cells.)

Assay [1] deals with T4, Ba/F3-TPR-MET-D1228N cells (Homo sapiens, UniProt P08581, D1228N, cells depend on it).
T4 construct: fused on or other part: P12270 (Nucleoprotein TPR)
The experiment in a line: CellTiter-Glo Cell Viability Assay, Ba/F3-TPR-MET-D1228N. The assay is classed as cell-based. The settings on record: 72 hours. How it is done:
as §2

T3 sequence (P08581 whole entry, change not shown, the tested form may be a part): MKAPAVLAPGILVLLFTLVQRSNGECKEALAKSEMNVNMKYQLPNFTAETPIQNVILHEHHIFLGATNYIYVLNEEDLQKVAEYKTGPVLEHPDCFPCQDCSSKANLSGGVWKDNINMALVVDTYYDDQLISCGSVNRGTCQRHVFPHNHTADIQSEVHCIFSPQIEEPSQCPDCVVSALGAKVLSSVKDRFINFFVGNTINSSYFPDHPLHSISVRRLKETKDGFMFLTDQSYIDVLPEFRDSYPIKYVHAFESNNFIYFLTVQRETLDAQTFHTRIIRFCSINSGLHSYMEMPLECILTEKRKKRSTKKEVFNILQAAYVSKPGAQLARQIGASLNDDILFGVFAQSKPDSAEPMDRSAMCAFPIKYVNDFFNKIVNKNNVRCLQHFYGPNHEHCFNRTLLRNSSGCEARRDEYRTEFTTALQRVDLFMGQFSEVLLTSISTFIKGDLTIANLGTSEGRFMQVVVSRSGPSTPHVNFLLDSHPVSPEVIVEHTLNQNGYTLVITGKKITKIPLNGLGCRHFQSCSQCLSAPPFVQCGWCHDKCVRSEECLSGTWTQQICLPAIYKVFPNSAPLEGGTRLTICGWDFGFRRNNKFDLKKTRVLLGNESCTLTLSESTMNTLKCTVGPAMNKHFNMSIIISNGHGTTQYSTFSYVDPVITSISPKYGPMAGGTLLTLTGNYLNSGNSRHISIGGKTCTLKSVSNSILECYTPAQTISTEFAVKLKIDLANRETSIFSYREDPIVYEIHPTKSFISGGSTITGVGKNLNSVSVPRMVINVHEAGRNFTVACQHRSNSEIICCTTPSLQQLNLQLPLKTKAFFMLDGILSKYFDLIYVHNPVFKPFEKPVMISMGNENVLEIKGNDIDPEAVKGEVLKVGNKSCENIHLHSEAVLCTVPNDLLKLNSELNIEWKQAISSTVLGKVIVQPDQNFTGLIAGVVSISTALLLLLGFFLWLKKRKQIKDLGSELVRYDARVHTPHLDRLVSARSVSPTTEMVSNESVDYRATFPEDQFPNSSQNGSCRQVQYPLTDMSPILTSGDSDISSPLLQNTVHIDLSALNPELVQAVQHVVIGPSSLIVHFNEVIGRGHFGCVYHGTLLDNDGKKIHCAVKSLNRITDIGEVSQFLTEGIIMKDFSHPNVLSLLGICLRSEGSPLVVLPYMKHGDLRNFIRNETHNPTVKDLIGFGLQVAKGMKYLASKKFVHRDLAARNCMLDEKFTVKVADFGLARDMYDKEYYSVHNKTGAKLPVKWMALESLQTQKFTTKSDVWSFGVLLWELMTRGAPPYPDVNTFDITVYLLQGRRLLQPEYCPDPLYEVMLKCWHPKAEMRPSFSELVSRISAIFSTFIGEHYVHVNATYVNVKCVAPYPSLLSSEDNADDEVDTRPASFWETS
T4 sequence (P08581 whole entry D1228N, the tested form may be a part): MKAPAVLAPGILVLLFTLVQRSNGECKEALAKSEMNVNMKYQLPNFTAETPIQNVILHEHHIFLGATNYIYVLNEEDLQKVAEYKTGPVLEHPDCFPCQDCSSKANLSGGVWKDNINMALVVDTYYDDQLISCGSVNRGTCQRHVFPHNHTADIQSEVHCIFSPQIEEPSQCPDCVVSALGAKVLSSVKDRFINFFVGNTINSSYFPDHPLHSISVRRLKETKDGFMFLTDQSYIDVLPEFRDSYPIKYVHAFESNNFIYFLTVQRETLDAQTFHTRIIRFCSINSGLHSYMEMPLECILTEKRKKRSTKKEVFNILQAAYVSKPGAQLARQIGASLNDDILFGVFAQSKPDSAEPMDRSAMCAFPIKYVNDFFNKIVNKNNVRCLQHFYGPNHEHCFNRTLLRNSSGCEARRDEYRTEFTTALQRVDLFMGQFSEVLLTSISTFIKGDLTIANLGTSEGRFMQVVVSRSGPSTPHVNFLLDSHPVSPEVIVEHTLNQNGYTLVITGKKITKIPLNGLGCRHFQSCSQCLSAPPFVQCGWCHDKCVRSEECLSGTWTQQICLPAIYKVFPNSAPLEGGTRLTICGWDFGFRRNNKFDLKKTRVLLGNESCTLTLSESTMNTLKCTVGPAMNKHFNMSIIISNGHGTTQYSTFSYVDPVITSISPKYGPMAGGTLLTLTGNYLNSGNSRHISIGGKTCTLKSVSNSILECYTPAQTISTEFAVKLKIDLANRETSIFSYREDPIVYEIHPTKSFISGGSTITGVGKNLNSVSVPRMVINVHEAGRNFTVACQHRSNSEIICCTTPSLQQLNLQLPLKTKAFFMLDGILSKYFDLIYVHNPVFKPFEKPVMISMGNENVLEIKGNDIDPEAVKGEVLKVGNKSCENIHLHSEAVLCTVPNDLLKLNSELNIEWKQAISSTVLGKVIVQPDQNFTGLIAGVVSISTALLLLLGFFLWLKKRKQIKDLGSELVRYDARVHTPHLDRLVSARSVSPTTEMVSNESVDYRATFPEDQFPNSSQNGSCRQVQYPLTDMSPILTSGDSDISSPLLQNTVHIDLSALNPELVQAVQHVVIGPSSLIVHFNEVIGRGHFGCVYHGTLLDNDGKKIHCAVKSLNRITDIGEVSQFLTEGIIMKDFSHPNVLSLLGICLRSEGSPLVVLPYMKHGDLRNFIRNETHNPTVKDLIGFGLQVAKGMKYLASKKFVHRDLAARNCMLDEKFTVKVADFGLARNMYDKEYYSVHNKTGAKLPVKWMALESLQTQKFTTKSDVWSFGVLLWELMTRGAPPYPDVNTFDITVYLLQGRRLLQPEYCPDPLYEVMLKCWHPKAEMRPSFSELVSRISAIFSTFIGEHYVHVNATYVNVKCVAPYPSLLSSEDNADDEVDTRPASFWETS
T2 sequence (P08581 25-1390 D1228N): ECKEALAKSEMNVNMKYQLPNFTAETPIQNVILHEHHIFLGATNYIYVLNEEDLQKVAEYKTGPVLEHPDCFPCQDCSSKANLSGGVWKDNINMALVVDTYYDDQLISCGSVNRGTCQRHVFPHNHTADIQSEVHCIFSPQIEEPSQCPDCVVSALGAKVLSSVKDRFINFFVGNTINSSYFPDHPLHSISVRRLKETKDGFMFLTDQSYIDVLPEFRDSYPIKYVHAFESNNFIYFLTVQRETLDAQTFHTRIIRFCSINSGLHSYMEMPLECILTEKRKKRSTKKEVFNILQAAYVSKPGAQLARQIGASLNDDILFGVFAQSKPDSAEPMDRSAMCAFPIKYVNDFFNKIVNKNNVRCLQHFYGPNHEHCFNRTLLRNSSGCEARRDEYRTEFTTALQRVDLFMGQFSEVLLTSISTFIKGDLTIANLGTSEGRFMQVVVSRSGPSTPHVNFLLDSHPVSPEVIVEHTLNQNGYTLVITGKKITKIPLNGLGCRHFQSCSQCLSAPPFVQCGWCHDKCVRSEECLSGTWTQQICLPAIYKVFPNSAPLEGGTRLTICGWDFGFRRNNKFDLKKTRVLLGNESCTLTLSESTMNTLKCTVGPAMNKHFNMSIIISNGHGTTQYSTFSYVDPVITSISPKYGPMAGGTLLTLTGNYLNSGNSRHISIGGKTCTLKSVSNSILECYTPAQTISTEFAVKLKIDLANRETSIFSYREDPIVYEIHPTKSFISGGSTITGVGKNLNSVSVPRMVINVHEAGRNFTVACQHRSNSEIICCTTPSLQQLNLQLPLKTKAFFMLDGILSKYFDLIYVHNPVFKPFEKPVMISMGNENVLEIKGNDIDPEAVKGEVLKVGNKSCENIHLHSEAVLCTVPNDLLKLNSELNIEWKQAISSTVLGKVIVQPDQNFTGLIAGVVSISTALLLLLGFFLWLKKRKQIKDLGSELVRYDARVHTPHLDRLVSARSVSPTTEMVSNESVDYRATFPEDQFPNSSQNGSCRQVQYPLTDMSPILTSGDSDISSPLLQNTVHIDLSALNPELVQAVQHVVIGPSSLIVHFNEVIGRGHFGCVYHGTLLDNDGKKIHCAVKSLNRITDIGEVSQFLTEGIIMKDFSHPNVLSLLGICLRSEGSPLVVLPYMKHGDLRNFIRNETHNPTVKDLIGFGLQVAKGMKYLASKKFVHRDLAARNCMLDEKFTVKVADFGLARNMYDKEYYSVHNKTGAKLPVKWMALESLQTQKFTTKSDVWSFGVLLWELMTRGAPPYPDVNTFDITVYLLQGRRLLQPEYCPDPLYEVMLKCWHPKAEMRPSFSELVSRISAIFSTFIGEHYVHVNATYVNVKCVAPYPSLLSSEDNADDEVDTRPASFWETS

On to `CNCCOc1cc2nccc(Oc3c(F)cc(NC(=O)c4cnccc4OCCCF)cc3F)c2cc1OC` [Example 58, N-[3,5-difluoro-4-({6-methoxy-7-[2-(methylamino)ethoxy]quinolin-4-yl}oxy)phenyl]-4-(3-fluoropropoxy)pyridine-3-carboxamide], for which the IC50 on MET and at MET D1228N was at most 100 nM in each case. Moreover, the EC50 (at Ba/F3-TPR-MET cells; in assay [1]) was at most 100 nM each time.
As for `COc1cc2c(Oc3cc(F)c(NC(=O)c4cnc(N)cc4OC)cc3F)ccnc2cc1OCCCN1CCOCC1` [Example 31, 6-amino-N-(2,5-difluoro-4-((6-methoxy-7-(3-morpholinopropoxy)quinolin-4-yl)oxy)phenyl)-4-methoxypyridine-3-carboxamide], the IC50 at MET and on MET D1228N was at most 100 nM each time. The EC50 (on Ba/F3-TPR-MET cells; in assay [1]) was 100 to 1000 nM throughout.
In the case of `COc1cc2c(Oc3c(F)cc(NC(=O)c4cnccc4OC4CC4)cc3F)ccnc2cc1OC1CNC1` [Example 74, N-(4-{[7-(azetidin-3-yloxy)-6-methoxyquinolin-4-yl]oxy}-3,5-difluorophenyl)-4-cyclopropoxypyridine-3-carboxamide], the IC50 at MET and at MET D1228N was at most 100 nM each time. Besides, the EC50 (at Ba/F3-TPR-MET cells; in assay [1]) was 100 to 1000 nM throughout.
Consider `CNCCCOc1cc2nccc(Oc3c(F)cc(NC(=O)c4cnccc4OC4CCC4)cc3F)c2cc1OC` [Example 85, 4-cyclobutoxy-N-(3,5-difluoro-4-((6-methoxy-7-(3-(methylamino)propoxy)quinolin-4-yl)oxy)phenyl)pyridine-3-carboxamide], for which the IC50 on MET and on MET D1228N was at most 100 nM in each case. Also, the EC50 (on Ba/F3-TPR-MET cells; in assay [1]) was 100 to 1000 nM in each case.
With `COc1cc2c(Oc3cc(F)c(NC(=O)c4cnccc4OC)cc3F)ccnc2cc1OCCCN1CCOCC1` [Example 27, N-[2,5-difluoro-4-({6-methoxy-7-[3-(morpholin-4-yl)propoxy]quinolin-4-yl}oxy)phenyl]-4-methoxypyridine-3-carboxamide], the IC50 at MET and on MET D1228N was at most 100 nM in each case. Further, the EC50 (on Ba/F3-TPR-MET cells; in assay [1]) was 100 to 1000 nM each time.
`CNCCOc1cc2nccc(Oc3c(F)cc(NC(=O)c4c(OC)ccnc4F)cc3F)c2cc1OC` [Example 4, N-(3,5-difluoro-4-((6-methoxy-7-(2-(methylamino)ethoxy)quinolin-4-yl)oxy)phenyl)-2-fluoro-4-methoxypyridine-3-carboxamide]: the IC50 at MET and on MET D1228N was at most 100 nM each time. The EC50 (on Ba/F3-TPR-MET cells; in assay [1]) was 100 to 1000 nM each time.
Take `CNCCOc1cc2nccc(Oc3c(F)cc(NC(=O)c4cnc(Cl)cc4OC4CC4)cc3F)c2cc1OC` [Example 112, 6-chloro-4-cyclopropoxy-N-[3,5-difluoro-4-({6-methoxy-7-[2-(methylamino)ethoxy]quinolin-4-yl}oxy)phenyl]pyridine-3-carboxamide]: the IC50 at MET and at MET D1228N was at most 100 nM throughout. In addition, the EC50 (at Ba/F3-TPR-MET cells; in assay [1]) was 100 to 1000 nM throughout.
In the case of `COCCOc1cc2nccc(Oc3c(F)cc(NC(=O)c4cnccc4OC)cc3F)c2nc1OC` [Example 137, N-(3,5-difluoro-4-((6-methoxy-7-(2-methoxyethoxy)-1,5-naphthyridin-4-yl)oxy)phenyl)-4-methoxypyridine-3-carboxamide], the IC50 at MET and at MET D1228N was at most 100 nM in each case. The EC50 (at Ba/F3-TPR-MET cells; in assay [1]) was at most 100 nM in each case.
`CNCCCOc1cc2nccc(Oc3c(F)cc(NC(=O)c4c(OC)ccnc4F)cc3F)c2cc1OC` [Example 20, N-(3,5-difluoro-4-((6-methoxy-7-(3-(methylamino)propoxy)quinolin-4-yl)oxy)phenyl)-2-fluoro-4-methoxypyridine-3-carboxamide]: the IC50 on MET and on MET D1228N was at most 100 nM in each case. Moreover, the concentration for a half-maximal effect (EC50) (on Ba/F3-TPR-MET cells; in assay [1]) was at most 100 nM throughout.
As to `CNCCCOc1cc2nccc(Oc3ccc(NC(=O)c4cnccc4OC)c(F)c3F)c2cc1OC` [Example 18, N-[2,3-difluoro-4-({6-methoxy-7-[3-(methylamino)propoxy]quinolin-4-yl}oxy)phenyl]-4-methoxypyridine-3-carboxamide], the IC50 at MET and at MET D1228N was at most 100 nM throughout. Also, the figures for the EC50 (on Ba/F3-TPR-MET cells; in assay [1]) were 100 to 1000 nM and at most 100 nM, respectively.
Consider `CCOc1cc(N)ncc1C(=O)Nc1cc(F)c(Oc2ccnc3cc(OCCCN4CCOCC4)c(OC)cc23)cc1F` [Example 32, 6-amino-N-[2,5-difluoro-4-({6-methoxy-7-[3-(morpholin-4-yl)propoxy]quinolin-4-yl}oxy)phenyl]-4-ethoxypyridine-3-carboxamide], for which the IC50 at MET and on MET D1228N was at most 100 nM each time. Also, the EC50 (at Ba/F3-TPR-MET cells; in assay [1]) was 100 to 1000 nM throughout.
Turning to `CNCCOc1cc2nccc(Oc3c(F)cc(NC(=O)c4cnc(Cl)cc4OC)cc3F)c2cc1OC` [Example 3, 6-chloro-N-(3,5-difluoro-4-((6-methoxy-7-(2-(methylamino)ethoxy)quinolin-4-yl)oxy)phenyl)-4-methoxypyridine-3-carboxamide], the IC50 at MET and at MET D1228N was at most 100 nM in each case. Also, the values for the EC50 (at Ba/F3-TPR-MET cells; in assay [1]) were at most 100 nM and 100 to 1000 nM, respectively.
Take `CNCCOc1cc2nccc(Oc3c(F)cc(NC(=O)c4cnccc4OC)cc3Cl)c2cc1OC` [Example 6, N-(3-chloro-5-fluoro-4-((6-methoxy-7-(2-(methylamino)ethoxy)quinolin-4-yl)oxy)phenyl)-4-methoxypyridine-3-carboxamide]: the IC50 on MET and on MET D1228N was at most 100 nM in each case. Moreover, the EC50 (on Ba/F3-TPR-MET cells; in assay [1]) was 100 to 1000 nM throughout.
As for `CCOc1ccncc1C(=O)Nc1cc(F)c(Oc2ccnc3cc(OCCNC)c(OC)cc23)c(F)c1F` [Example 51, 4-ethoxy-N-[2,3,5-trifluoro-4-({6-methoxy-7-[2-(methylamino)ethoxy]quinolin-4-yl}oxy)phenyl]pyridine-3-carboxamide], the IC50 on MET and at MET D1228N was at most 100 nM in each case. Moreover, the figures for the EC50 (at Ba/F3-TPR-MET cells; in assay [1]) were 100 to 1000 nM and at most 100 nM, respectively.
For the compound `COCCOc1cc2nccc(Oc3c(F)cc(NC(=O)c4cnccc4OC4CC4)cc3F)c2cc1OC` [Example 106, 4-cyclopropoxy-N-(3,5-difluoro-4-{[6-methoxy-7-(2-methoxyethoxy)quinolin-4-yl]oxy}phenyl)pyridine-3-carboxamide], the IC50 at MET and at MET D1228N was at most 100 nM each time. In addition, the EC50 (on Ba/F3-TPR-MET cells; in assay [1]) was at most 100 nM in each case.
For `COc1cc2nccc(Oc3c(F)cc(NC(=O)c4cnccc4OCCO)cc3F)c2cc1OC` [Example 95, N-{4-[(6,7-dimethoxyquinolin-4-yl)oxy]-3,5-difluorophenyl}-4-(2-hydroxyethoxy)pyridine-3-carboxamide], the IC50 at MET and at MET D1228N was at most 100 nM throughout. Further, the EC50 (at Ba/F3-TPR-MET cells; in assay [1]) was 100 to 1000 nM throughout.

By IC50 is commonly meant the concentration that gives 50% inhibition. As usually defined, the EC50 is the concentration giving half of the maximal effect. A high value points to lower potency in that assay.
